Data published in patent US20240384268A1, “Oligonucleotides” (Hudson Institute of Medical Research, priority 2021, published 2024).
In the oligonucleotide strings, read from the 5' end, every base follows the letter of its sugar. An asterisk marks phosphorothioate; unmarked linkages are phosphodiester. Other units and linkages are bracketed, terminal groups are in braces. A string of capitals states the bases alone. d = 2'-deoxy (DNA); m = 2'-O-methyl

Molecular target: cGAS (Homo sapiens, UniProt Q8N884)
Sequence (Q8N884 whole entry): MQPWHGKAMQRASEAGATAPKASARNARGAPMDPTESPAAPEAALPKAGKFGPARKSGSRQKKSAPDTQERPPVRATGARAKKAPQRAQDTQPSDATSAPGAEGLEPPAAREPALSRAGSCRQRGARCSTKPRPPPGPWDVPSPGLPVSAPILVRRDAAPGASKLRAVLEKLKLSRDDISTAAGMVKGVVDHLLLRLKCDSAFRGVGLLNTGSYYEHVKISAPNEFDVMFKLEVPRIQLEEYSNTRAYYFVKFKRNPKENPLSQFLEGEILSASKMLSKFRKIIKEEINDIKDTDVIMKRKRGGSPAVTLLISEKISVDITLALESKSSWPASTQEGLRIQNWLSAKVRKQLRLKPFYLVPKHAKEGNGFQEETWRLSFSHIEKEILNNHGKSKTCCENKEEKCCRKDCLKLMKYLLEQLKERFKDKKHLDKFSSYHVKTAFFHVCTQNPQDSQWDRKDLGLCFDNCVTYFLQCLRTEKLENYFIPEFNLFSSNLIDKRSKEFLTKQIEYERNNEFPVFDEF
Assay: ISD70-driven IP-10 (and IFN-β) production in THP-1 cells, ELISA
Format: cell-based
Design: endogenous in cells; host or cells: THP-1 (undifferentiated)
Settings: for cGAS-100 nM: averaged IP-10 levels relative to ISD70: THP-1, 100 nM ASO overnight, then ISD70 2.5 μg/ml 7-8 h, percentage of ISD70 only; for cGAS 100 nM: MOE-modified ASO at 100 nM, averaged IP-10 levels relative to ISD70 condition

Substance: mA*mA*mG*mG*mU*G*G*C*C*A*C*A*G*G*C*mA*mA*mC*mG*mU (mA*mA*mG*mG*mU*dG*dG*dC*dC*dA*dC*dA*dG*dG*dC*mA*mA*mC*mG*mU; antisense) [[CDKN2B-AS1]2198]
- cGAS-100 nM: averaged IP-10 levels relative to ISD70: 60.48%

Substance: mA*mU*mG*mA*mC*A*T*T*T*C*G*T*G*G*C*mU*mC*mC*mU*mA (mA*mU*mG*mA*mC*dA*dT*dT*dT*dC*dG*dT*dG*dG*dC*mU*mC*mC*mU*mA) [[LINC-PINT]524.1]
- cGAS-100 nM: averaged IP-10 levels relative to ISD70: 99.38%

Substance: mC*mC*mC*mU*mA*A*T*G*C*T*T*T*C*C*T*mC*mU*mC*mC*mA (mC*mC*mC*mU*mA*dA*dT*dG*dC*dT*dT*dT*dC*dC*dT*mC*mU*mC*mC*mA; antisense) [[LINC-PINT1877 KL]
- cGAS-100 nM: averaged IP-10 levels relative to ISD70: 89.09%

Substance: mG*mU*mC*mC*mG*T*A*C*C*T*C*C*A*C*C*mC″mA*mC*mC*mG [[LINC-PINT]727.1]
- cGAS-100 nM: averaged IP-10 levels relative to ISD70: 86.09%

Substance: mA*mG*mG*mA*mU*T*A*A*A*A*C*A*G*A*T*mU*mA*mA*mU*mA (mA*mG*mG*mA*mU*dT*dA*dA*dA*dA*dC*dA*dG*dA*dT*mU*mA*mA*mU*mA) [[CDKN2B-AS1] 1775]
- cGAS-100 nM: averaged IP-10 levels relative to ISD70: 88.54%

Substance: TGGGCTGGAATCCGAGTTAT (antisense; 2'-MOE modified, pattern not given here) [EGFR-4705 MOE]
- cGAS 100 nM: 0.433

Substance: mU*mU*mC*mU*mC*T*C*T*G*G*T*C*C*C*A*mU*mC*mC*mC*mU (mU*mU*mC*mU*mC*dT*dC*dT*dG*dG*dT*dC*dC*dC*dA*mU*mC*mC*mC*mU; antisense) [[LINC-PINT]111]
- cGAS-100 nM: averaged IP-10 levels relative to ISD70: 77.41%

Substance: mG*mC*mA*mA*mG*G*C*A*G*A*G*A*A*A*C*mU*mC*mC*mA*mG (GCAAGGCAGAGAAACUCCAG; sugars from the 5' end m5 d10 m5, all phosphorothioate, methylation of C not given here) [[LINC-PINT]1315 KL]
- cGAS-100 nM: averaged IP-10 levels relative to ISD70: 30.64%

Substance: mA*mG*mA*mU*mU*A*T*C*T*T*C*T*T*T*T*mA*mA*mU*mU*mU (AGAUUATCTTCTTTTAAUUU; sugars from the 5' end m5 d10 m5, all phosphorothioate, methylation of C not given here) [[CDKN2B-AS1]2130]
- cGAS-100 nM: averaged IP-10 levels relative to ISD70: 55.80%

Substance: mU*mC*mC*mC*mA*T*C*C*C*T*T*C*T*G*C*mU*mG*mA*mC*mA (UCCCATCCCTTCTGCUGACA; sugars from the 5' end m5 d10 m5, all phosphorothioate, methylation of C not given here) [[LINC-PINT]101]
- cGAS-100 nM: averaged IP-10 levels relative to ISD70: 86.62%

Substance: mA*mU*mA*mU*mC*T*G*C*T*G*C*C*C*A*C*mC*mU*mU*mC*mU (AUAUCTGCTGCCCACCUUCU; antisense; sugars from the 5' end m5 d10 m5, all phosphorothioate, methylation of C not given here) [[CDKN2B-AS1]831]
- cGAS-100 nM: averaged IP-10 levels relative to ISD70: 108.01%

Substance: mA*mA*mA*mA*mG*A*T*T*A*T*C*T*T*C*T*mU*mU*mU*mA*mA (AAAAGATTATCTTCTUUUAA; sugars from the 5' end m5 d10 m5, all phosphorothioate, methylation of C not given here) [[CDKN2B-AS1]2133]
- cGAS-100 nM: averaged IP-10 levels relative to ISD70: 57.68%

Substance: mU*mG*mU*mG*mA*A*A*A*G*A*T*T*A*T*C*mU*mU*mC*mU*mU (UGUGAAAAGATTATCUUCUU; sugars from the 5' end m5 d10 m5, all phosphorothioate, methylation of C not given here) [[CDKN2B-AS1]2137]
- cGAS-100 nM: averaged IP-10 levels relative to ISD70: 40.72%

Substance: mU*mU*mU*mG*mA*A*A*T*T*C*A*G*A*A*G*mA*mU*mU*mU*mG (mU*mU*mU*mG*mA*dA*dA*dT*dT*dC*dA*dG*dA*dA*dG*mA*mU*mU*mU*mG) [[LINC PINT|2690]
- cGAS-100 nM: averaged IP-10 levels relative to ISD70: 84.15%

Substance: mG*mG*mU*mG*mG*C*C*A*C*A*G*G*C*A*A*mC*mG*mU*mC*mA (GGUGGCCACAGGCAACGUCA; antisense; sugars from the 5' end m5 d10 m5, all phosphorothioate, methylation of C not given here) [[CDKN2B-AS1]2196]
- cGAS-100 nM: averaged IP-10 levels relative to ISD70: 48.58%

Substance: mC*mC*mA*mU*mC*C*C*T*T*C*T*G*C*T*G*mC*mC*mA*mA*mG (mC*mC*mA*mU*mC*dC*dC*dT*dT*dC*dT*dG*dC*dT*dG*mC*mC*mA*mA*mG; antisense) [ILING-PINT199]
- cGAS-100 nM: averaged IP-10 levels relative to ISD70: 85.43%

Substance: mA*mA*mA*mA*mU*A*A*G*G*G*G*A*A*T*A*mG*mG*mG*mG*mA (mA*mA*mA*mA*mU*dA*dA*dG*dG*dG*dG*dA*dA*dT*dA*mG*mG*mG*mG*mA; antisense) [[CDKN2B-AS1]79]
- cGAS-100 nM: averaged IP-10 levels relative to ISD70: 94.10%

Substance: mC*mU*mC*mU*mC*T*G*G*T*C*C*C*A*T*C*mC*mC*mU*mU*mC (mC*mU*mC*mU*mC*dT*dG*dG*dT*dC*dC*dC*dA*dT*dC*mC*mC*mU*mU*mC; antisense) [[LINC-PINT]109]
- cGAS-100 nM: averaged IP-10 levels relative to ISD70: 80.22%

Substance: CGGCATCCACCACGTCGTCC (antisense; 2'-MOE modified, pattern not given here) [EGFR-3267 MOE]
- cGAS 100 nM: 0.378

Substance: mA*mG*mA*mA*mA*G*A*A*G*C*A*A*A*G*A*mU*mU*mC*mA*mA (AGAAAGAAGCAAAGAUUCAA; sugars from the 5' end m5 d10 m5, all phosphorothioate, methylation of C not given here) [[CDKN2B-AS1]1519]
- cGAS-100 nM: averaged IP-10 levels relative to ISD70: 49.09%

Substance: mC*mC*mA*mU*mG*T*C*C*C*A*G*G*C*C*T*mC*mC*mA*mG*mU (CCAUGTCCCAGGCCTCCAGU; sugars from the 5' end m5 d10 m5, all phosphorothioate, methylation of C not given here) [[CDKN2B-AS1]2227]
- cGAS-100 nM: averaged IP-10 levels relative to ISD70: 36.34%

Substance: CGGAGGTCTTGGCTTCGTGG (antisense; 2'-MOE modified, pattern not given here) [MB21D1-525 MOE]
- cGAS 100 nM: 0.111

Substance: TGGGTTACGGCTCAGTATGG (antisense; 2'-MOE modified, pattern not given here) [CAMSAP1-4295 MOE]
- cGAS 100 nM: 0.432

Substance: mA*mA*mG*mA*mU*T*A*T*C*T*T*C*T*T*T*mU*mA*mA*mU*mU (mA*mA*mG*mA*mU*dT*dA*dT*dC*dT*dT*dC*dT*dT*dT*mU*mA*mA*mU*mU) [[CDKN2B-AS1]2131]
- cGAS-100 nM: averaged IP-10 levels relative to ISD70: 73.50%

Substance: mU*mU*mA*mA*mA*T*A*A*T*C*T*A*G*T*T*mU*mG*mA*mA*mG (UUAAATAATCTAGTTUGAAG; sugars from the 5' end m5 d10 m5, all phosphorothioate, methylation of C not given here) [[CDKN2B-AS1]132]
- cGAS-100 nM: averaged IP-10 levels relative to ISD70: 52.20%

Substance: mU*mC*mU*mG*mG*T*C*C*C*A*T*C*C*C*T*mU*mC*mU*mG*mC (UCUGGTCCCATCCCTUCUGC; antisense; sugars from the 5' end m5 d10 m5, all phosphorothioate, methylation of C not given here) [[LINC-PINT]106]
- cGAS-100 nM: averaged IP-10 levels relative to ISD70: 48.75%
